According to patent US10813914B2, “Composition for controlling microsporidia in fishes and method for controlling microsporidia in fishes using same” (MARUHA NICHIRO CORPORATION, priority 2016, dated 2020):
Marks after values point to notes of the source that are not given here.

What was measured:
[1] = tested on: microsporidian cyst (beko cyst), beko disease; test: Prevention test of beko disease in Mojako using fenbendazole (1-1); assay type: in vivo, “Mojako” (yellowtail larva); conditions: 20 mg/kg Bw oral, 6 times/week, 6 weeks, 10 fishes tested; for Positive average per fish (average number of beko cyst per fish): p < 0.05 vs control
Experimental: 1-1: Prevention Test of Beko Disease in “Mojako” Using Fenbendazole
The prevention test was conducted according to the following procedure.
(§1) Test number: Live 1000 fishes (each initial body weight: 12 g)
(§2) Administration method: oral administration (feed together with spreading agent)
Drug used: fenbendazole (compound represented by the above-described formula (1))
(§3) Administration amount: 20 mg/kg Bw (20 mg per kg of fish body weight)
Interval between administration: 6 times/week
A sampling test was carried out according to the following procedure:
Six weeks after the start of administration, each 10 fishes of “Mojako” were taken out from each test group (a control group (the test was conducted under the same conditions as the above-described test conditions, except that the feed fed contained no fenbendazole) and a fenbendazole group), and each fish was cut into three pieces. It was then visually tested whether the microsporidian cyst (beko cyst) was found in the pieces. When the beko cyst was observed, it was judged as positive and the results were accumulated. Regarding the beko cyst that could be confirmed with the naked eye, the number was confirmed and the average infection number per one fish was determined.

[2] = tested on: microsporidian cyst (beko cyst), beko disease; test: Prevention test of beko disease in Mojako using flubendazole (1-2); assay type: in vivo, “Mojako” (yellowtail larva); conditions: 20 mg/kg Bw oral, 6 times/week, 4 weeks, 10 fishes tested; for Positive average per fish (average number of beko cyst per fish): p < 0.05 vs control
Experimental: 1-2. Prevention Test of Beko Disease in “Mojako” Using Flubendazole
A preliminary test was carried out according to the following procedure:
as §1, §2
Drug used: flubendazole (compound represented by the above-described formula (6))
as §3
(§4) Administration interval: 6 times/week
Sampling test procedure: same as above 1-1

[3] = tested on: microsporidian cyst (beko cyst), beko disease; test: Prevention test of beko disease in Kanpachi using triclabendazole (1-8); assay type: in vivo, “Kanpachi” (great amberjack); conditions: 40 mg/kg Bw oral, 6 times/week
Experimental: A Prevention test of the beko disease in “Kanpachi” was carried out using triclabendazole. The preliminary test was performed according to the following procedure:
Test number: Live 1000 fishes (each initial body weight: 50 g)
as §2
Drug used: triclabendazole (compound represented by the above-described formula (10))
Administration amount: 40 mg/kg Bw (40 mg per kg of fish body weight)
as §4
Sampling test procedure: same as in the above-described 1-1

Heterosporis anguillarum = conditions: beko disease of eels, Non-Patent Document 2; cited from earlier work
Glugea plecoglossi = conditions: glugeosis of Ayu, Non-Patent Document 1; cited from earlier work
microsporidia = conditions: culture test, Non-Patent Documents 3 to 7; cited from earlier work

COC(=O)Nc1nc2cc(Sc3ccccc3)ccc2[nH]1 [Fenbendazole, fenbendazole]
Number of Beko cyst [1]: 30
Number of positive fishes [1]: 6
Positive average per fish (average number of beko cyst per fish) [1]: 3.5 ± 3.83
Positive average per fish (average number of beko cyst per fish) ([1]; listed as fenbendazole): 3.5±3.83

COC(=O)Nc1nc2cc(C(=O)c3ccc(F)cc3)ccc2[nH]1 [Flubendazole, flubendazole]
Number of Beko cyst [2]: 10
Number of positive fishes [2]: 5
Positive average per fish (average number of beko cyst per fish) [2]: 1.0 ± 1.1
Positive average per fish (average number of beko cyst per fish) ([2]; listed as flubendazole): 1.0±1.1

CSc1nc2cc(Cl)c(Oc3cccc(Cl)c3Cl)cc2[nH]1 [Triclabendazole, triclabendazole]
Positive fishes (beko cyst) / fishes sampled ([3]; 8 Weeks, p < 0.001, 40 mg/kg): 0/50***
Positive fishes (beko cyst) / fishes sampled ([3]; 8 Weeks, p < 0.001, listed as triclabendazole, 40 mg/kg): significantly suppressed generation of the beko cyst
Positive fishes (beko cyst) / fishes sampled ([3]; at administration start time): 0/20

CO[C@@H]1[C@H](OC(=O)/C=C/C=C/C=C/C=C/C(=O)O)CC[C@]2(CO2)[C@H]1[C@@]1(C)O[C@@H]1CC=C(C)C [fumagillin]
Therapeutic efficacy (Heterosporis anguillarum): high therapeutic efficacy was recognized
Therapeutic efficacy (Glugea plecoglossi): high therapeutic efficacy was recognized
Antimicrobial activity against microsporidia (microsporidia): high antimicrobial activity
